In patent US7320996B2, “Indolinone protein kinase inhibitors and cyclooxygenase inhibitors for use in combination therapy for the treatment of cancer” (Sugen, Inc, priority 2001, dated 2008):
pIC50: −log10 of the molar value.

Legend:
Lewis Lung tumors = experiment: Lewis Lung Model; format: in vivo, mice
Method: Mice were injected subcutaneously in the left paw (1×10^6 tumor cells suspended in 30% Matrigel) and tumor volume was evaluated using a phlethysmometer twice a week for 30-60 days. […] The data are expressed as the mean+/−SEM. Student's and Mann-Whitney tests were used to assess differences between means using the InStat software package. […] Analysis of lung metastasis was done in all the animals by counting metastasis in a stereomicroscope and by histochemical analysis of consecutive lung sections.

[1] = tested on: HT-29 human colon cancer cells; experiment: HT-29 Model; format: in vivo, nude mice
Method: Mice were injected subcutaneously in the left paw (1×10^6 tumor cells suspended in 30% Matrigel) and tumor volume was evaluated using a phlethysmometer twice a week for 30-60 days. Implantation of human colon cancer cells (HT-29) into nude mice produces tumors that will reach 0.6-2 ml between 30-50 days. […] The data are expressed as the mean+/−SEM. Student's and Mann-Whitney tests were used to assess differences between means using the InStat software package.
The efficacy of both agents were determined by measuring tumor volume.

[2] = target: T1, HER-2 kinase (EGFr/HER-2 chimera/3T3-C7 cell line) (Homo sapiens, UniProt P04626); experiment: Cellular HER-2 kinase assay, whole-cell ELISA; format: cell-based; details: read-out: Her2 Kinase IC50
T1 construct: fused on or other part: EGFR extracellular part, stimulated by EGF and captured by the anti-EGFR antibody SUMO1; P00533 (Epidermal growth factor receptor)
Method: This assay is used to measure HER-2 kinase activity in whole cells in an ELISA format.
Fetal Bovine Serum (FBS, GIBCO Catalog #16000-044), heat inactivated in a water bath for 30 min. at 56° C. • 3. […] PBS. • 9. […] Corning 96-well ELISA Plates. • 12. NUNC 96-well V bottom polypropylene plates. • 13. […] SUMO 1: monoclonal anti-EGFR antibody (SUGEN, Inc.). • 15. TBST Buffer. • 16. Blocking Buffer: 5% Carnation Instant Milk® in PBS. • 17. […] Suspend powder in 100 uL of 10 mM HCl. Add 100 uL 10 mM NaOH. Add 800 uL PBS and transfer to an Eppendorf tube, store at −20° C. until ready to use. • 18. […] EDTA. • 20. Na3VO4. […] Boil in microwave for one minute (solution becomes clear). • Cool to room temperature. Adjust pH to 10. Repeat heating/cooling cycle until pH remains at 10. • 21. 200 mM Na4P2O7. • 22. Rabbit polyclonal antiserum specific for phosphotyrosine (anti-Ptyr antibody, SUGEN, Inc.). • 23. Affinity purified antiserum, goat anti-rabbit IgG antibody, peroxidase conjugate (Biosource Cat #ALI0404). • 24. ABTS Solution. • 25. 30% Hydrogen peroxide solution. • 26. ABTS/H2O2. • 27. 0.2 M HCl. Procedure: • 1. Coat Corning 96 well ELISA plates with SUMO1 at 1.0 ug per well in PBS, 100 ul final volume/well. Store overnight at 4° C. • 2. On day of use, remove coating buffer and wash plate 3 times with dH2O and once with TBST buffer. All washes in this assay should be done in this manner, unless otherwise specified. • 3. Add 100 ul of Blocking Buffer to each well. Incubate plate, with shaking, for 30 min. at room temperature. Just prior to use, wash plate. • 4. Use EGFr/HER-2 chimera/3T3-C7 cell line for this assay. • 5. Choose dishes having 80-90% confluence. Collect cells by trypsinization and centrifuge at 1000 rpm at room temperature for 5 min. • 6. Resuspend cells in starve medium and count with trypan blue. Viability above 90% is required. Seed cells in starve medium at a density of 2,500 cells per well, 90 ul per well, in a 96 well microtiter plate. Incubate seeded cells overnight at 37° under 5% CO2. • 7. Start the assay two days after seeding. • 8. Test compounds are dissolved in 4% DMSO. Samples are then further diluted directly on plates with starve-DMEM. Typically, this dilution will be 1:10 or greater. […] Incubate at 37° C. for 10 min. • 13. Remove test compound, EGF, and DMEM. Wash cells once with PBS. • 14. Transfer HNTG* to cells, 100 ul per well. Place on ice for 5 minutes. • Meanwhile, remove blocking buffer from ELISA plate and wash. • 15. Scrape cells from plate with a micropipettor and homogenize cell material by repeatedly aspirating and dispensing the HNTG* lysis buffer. Transfer lysate to a coated, blocked, washed ELISA plate. Or, use a Costar transfer cartridge to transfer lysate to the plate. • 16. Incubate, with shaking, at room temperature for 1 hr. • 17. Remove lysate, wash. Transfer freshly diluted anti-Ptyr antibody (1:3000 in TBST) to ELISA plate, 100 ul per well. • 18. Incubate, with shaking, at room temperature, for 30 min. • 19. Remove anti-Ptyr antibody, wash. Transfer freshly diluted BIOSOURCE antibody to ELISA plate (1:8000 in TBST, 100 ul per well). • 20. Incubate, with shaking, at room temperature for 30 min. • 21. Remove BIOSOURCE antibody, wash. Transfer freshly prepared ABTS/H2O2 solution to ELISA plate, 100 ul per well. • 22. […] Remove any bubbles. • 23. Stop reaction with the addition of 100 ul of 0.2M HCl per well. • 24.

EGFR = EGFR (Homo sapiens, UniProt P00533); experiment: cell EGF assay; format: cell-based
Method: Several of the assays described herein are performed in an ELISA (Enzyme-Linked Immunosorbent […]) format (Voller, et al, 1980, “Enzyme-Linked Immunosorbent Assay,” Manual of Clinical Immunology, 2d ed., Rose and Friedman, Am. Soc. Of Microbiology, Washington, D.C., pp. 359-371). The general procedure is as follows: a compound of Formula (I) is introduced to cells expressing the test kinase, either naturally or recombinantly, for a selected period of time after which, if the test kinase is a receptor, a ligand known to activate the receptor is added. The cells are lysed and the lysate is transferred to the wells of an ELISA plate previously coated with a specific antibody recognizing the substrate of the enzymatic phosphorylation reaction. Non-substrate components of the cell lysate are washed away and the amount of phosphorylation on the substrate is detected with an antibody specifically recognizing phosphotyrosine compared with control cells that were not contacted with a test compound.
Specifically, the results shown indicate the concentration of a test compound needed to cause a 50% reduction of the activity of the target PTK. Bioassays which have been or can be used to evaluate compounds are described in detail below.

EGFR (A431 cell lysate) = target: T2, EGFR (A431 cell lysate) (Homo sapiens, UniProt P00533); experiment: EGFR bioassay, ELISA; format: biochemical; details: read-out: bio EGF IC50
T2 construct: A431 cell lysate (SUGEN, Inc.); host or cells: A431
Method: This assay is used to the in vitro kinase activity of FGF1-R in an ELISA assay.
Corning 96-well Elisa plates. • 2. SUMOL1 monoclonal anti-EGFR antibody (SUGEN, Inc.). • 3. PBS • 4. TBST Buffer • 5. Blocking Buffer: for 100 ml, mix 5.0 g Carnation Instant Non-fat Milk® with 100 ml of PBS. • 6. A431 cell lysate (SUGEN, Inc.). • 7. TBS Buffer: • 8.
bring to 1 liter total volume with dH2O. • 9. […] This reagent should be made up immediately prior to use and kept on ice. • 10. 1.0 mM MnCl2. • 11. […] Prepare just prior to use, keep on ice. • 12. NUNC 96-well V bottom polypropylene plates. • 13. EDTA. • 14. Rabbit polyclonal anti-phosphotyrosine serum (SUGEN, Inc.). • 15. Goat anti-rabbit IgG peroxidase conjugate (Biosource Cat. No. ALI0404). • 16. ABTS. • 17. 30% Hydrogen peroxide. • 18. ABTS/H2O2 • 19. 0.2 M HCl. Procedure: • 1. Coat Corning 96 well ELISA plates with 0.5 μg SUMO1 in 100 μl PBS per well, store overnight at 4° C. • 2. Remove unbound SUMO1 from wells by inverting plate to remove liquid. Wash 1×with dH2O. Pat the plate on a paper towel to remove excess liquid. • 3. Add 150 μl of Blocking Buffer to each well. Incubate, with shaking, for 30 min. at room temperature. • 4. Wash plate 3×with deionized water, then once with TBST. Pat plate on a paper towel to remove excess liquid and bubbles. • 5. Dilute lysate in PBS (7 μg lysate/100 μl PBS). • 6. Add 100 μl of diluted lysate to each well. Shake at room temperature for 1 hr. • 7. Wash plates as in 4, above. • 8. Add 120 μl TBS to ELISA plate containing captured EGFR. • 9. […] Add 13.5 μl diluted test compound to ELISA plate. To control wells, add 13.5 μl TBS in 10% DMSO. • 11. Incubate, with shaking, for 30 minutes at room temperature. • 12. Add 15 μl phosphorylation mix to all wells except negative control well. Final well volume should be approximately 150 μl with 3 μM ATP/5 mM MnCl2 final concentration in each well. Incubate with shaking for 5 minutes. • 13. Stop reaction by adding 16.5 μl of EDTA solution while shaking. Shake for additional 1 min. • 14. Wash 4×with deionized water, 2×with TBST. • 15. Add 100 μl anti-phosphotyrosine (1:3000 dilution in TBST) per well. Incubate, with shaking, for 30-45 min. at room temperature. • 16. Wash as in 4, above. • 17. […] Incubate with shaking for 30 min. at room temperature. • 18. Wash as in 4, above. • 19. Add 100 μl of ABTS/H2O2 solution to each well. • 20. Incubate 5 to 10 minutes with shaking. Remove any bubbles. • 21. If necessary, stop reaction by adding 100 μl 0.2 M HCl per well. • 22.

[3] = target: T3, PDGFR-β (NIH 3T3 cell lysate) (Homo sapiens, UniProt P09619); experiment: PDGFR bioassay, ELISA; format: biochemical; details: read-out: bio PDGF IC50
T3 construct: host or cells: NIH 3T3
Method: Corning 96-well Elisa plates • 2. 28D4C10 monoclonal anti-PDGFR antibody (SUGEN, Inc.). • 3. PBS. • 4. TBST Buffer. • 5. Blocking Buffer (same as for EGFR bioassay). • 6. PDGFR-β expressing NIH 3T3 cell lysate (SUGEN, Inc.). • 7. TBS Buffer. • 8. TBS+10% DMSO. • 9. ATP. • 10. MnCl2. • 11. Kinase buffer phosphorylation mix: for 10 ml, mix 250 μl 1M TRIS, 200 μl 5M NaCl, 100 μl 1M MnCl2 and 50 μl 100 mM Triton X-100 in enough dH2O to make 10 ml. • 12. NUNC 96-well V bottom polypropylene plates. • 13. EDTA. • 14. Rabbit polyclonal anti-phosphotyrosine serum (SUGEN, Inc.). • 15. Goat anti-rabbit IgG peroxidase conjugate (Biosource Cat. No. ALI0404). • 16. ABTS. • 17. Hydrogen peroxide, 30% solution. • 18. ABTS/H2O2. • 19. 0.2 M HCl. Procedure: • 1. Coat Corning 96 well ELISA plates with 0.5 μg 28D4C10 in 100 μl PBS per well, store overnight at 4° C. • 2. Remove unbound 28D4C10 from wells by inverting plate to remove liquid. • Wash 1×with dH2O. Pat the plate on a paper towel to remove excess liquid. • 3. Add 150 μl of Blocking Buffer to each well. Incubate for 30 min. at room temperature with shaking. • 4. Wash plate 3×with deionized water, then once with TBST. Pat plate on a paper towel to remove excess liquid and bubbles. • 5. Dilute lysate in HNTG (10 μg lysate/100 μl HNTG). • 6. Add 100 μl of diluted lysate to each well. Shake at room temperature for 60 min. • 7. Wash plates as described in Step 4. • 8. Add 80 μl working kinase buffer mix to ELISA plate containing captured PDGFR. • 9. […] Add 10 μl diluted test compound to ELISA plate. To control wells, add 10 μl TBS+10% DMSO. Incubate with shaking for 30 minutes at room temperature. • 11. Add 10 μl ATP directly to all wells except negative control well (final well volume should be approximately 100 μl with 20 μM ATP in each well.) Incubate 30 minutes with shaking. • 12. Stop reaction by adding 10 μl of EDTA solution to each well. • 13. Wash 4×with deionized water, twice with TBST. • 14. Add 100 μl anti-phosphotyrosine (1:3000 dilution in TBST) per well. Incubate with shaking for 30-45 min. at room temperature. • 15. Wash as in Step 4. • 16. […] Incubate with shaking for 30 min. at room temperature. • 17. Wash as in Step 4. • 18. Add 100 μl of ABTS/H2O2 solution to each well. • 19. Incubate 10 to 30 minutes with shaking. Remove any bubbles. • 20. If necessary stop reaction with the addition of 100 μl 0.2 M HCl per well. • 21.

[4] = tested on: HT-29 human colon cancer cells; experiment: HT-29 Model; format: in vivo, nude mice; details: HT-29 assay A

EGFR, sequence (P00533 25-1210, species assumed): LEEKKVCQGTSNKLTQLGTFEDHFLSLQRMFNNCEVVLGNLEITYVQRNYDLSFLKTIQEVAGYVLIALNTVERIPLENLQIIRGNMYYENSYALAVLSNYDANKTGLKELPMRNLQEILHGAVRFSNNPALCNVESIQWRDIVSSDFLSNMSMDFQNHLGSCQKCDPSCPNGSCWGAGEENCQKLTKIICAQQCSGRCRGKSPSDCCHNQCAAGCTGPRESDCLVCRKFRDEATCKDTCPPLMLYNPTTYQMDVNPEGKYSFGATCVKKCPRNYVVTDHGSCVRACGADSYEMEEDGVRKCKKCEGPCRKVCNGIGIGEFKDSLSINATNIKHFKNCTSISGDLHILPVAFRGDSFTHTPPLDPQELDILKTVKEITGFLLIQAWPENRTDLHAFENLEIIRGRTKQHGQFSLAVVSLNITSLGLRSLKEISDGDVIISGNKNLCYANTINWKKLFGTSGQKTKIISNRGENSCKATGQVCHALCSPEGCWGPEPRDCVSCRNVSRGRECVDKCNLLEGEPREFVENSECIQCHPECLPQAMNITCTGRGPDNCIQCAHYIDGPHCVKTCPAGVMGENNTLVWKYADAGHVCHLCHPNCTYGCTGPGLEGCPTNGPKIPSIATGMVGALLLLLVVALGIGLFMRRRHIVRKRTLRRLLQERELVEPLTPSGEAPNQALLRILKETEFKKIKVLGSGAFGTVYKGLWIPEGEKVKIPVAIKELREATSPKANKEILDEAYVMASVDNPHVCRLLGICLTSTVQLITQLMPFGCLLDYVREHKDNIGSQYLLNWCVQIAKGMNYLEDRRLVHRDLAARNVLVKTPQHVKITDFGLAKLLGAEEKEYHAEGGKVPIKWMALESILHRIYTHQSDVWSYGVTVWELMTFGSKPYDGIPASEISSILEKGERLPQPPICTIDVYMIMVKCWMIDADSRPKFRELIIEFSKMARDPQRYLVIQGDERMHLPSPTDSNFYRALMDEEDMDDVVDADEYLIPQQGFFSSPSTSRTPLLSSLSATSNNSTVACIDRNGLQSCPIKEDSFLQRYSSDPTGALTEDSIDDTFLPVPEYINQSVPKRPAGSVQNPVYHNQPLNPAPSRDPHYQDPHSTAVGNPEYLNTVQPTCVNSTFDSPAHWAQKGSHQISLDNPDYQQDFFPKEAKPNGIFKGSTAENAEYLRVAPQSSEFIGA
T1 sequence (P04626 720-987 limits assumed, change not shown): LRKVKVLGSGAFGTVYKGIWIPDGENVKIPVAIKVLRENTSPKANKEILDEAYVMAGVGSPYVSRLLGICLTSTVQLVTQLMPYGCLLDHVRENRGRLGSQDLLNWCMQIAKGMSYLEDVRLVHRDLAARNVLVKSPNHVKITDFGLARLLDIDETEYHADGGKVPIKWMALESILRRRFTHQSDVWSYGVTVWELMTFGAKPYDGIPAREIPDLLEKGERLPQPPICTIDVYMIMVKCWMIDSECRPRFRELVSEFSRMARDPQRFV
T2 sequence (P00533 25-1210): as the sequence (P00533 25-1210, species assumed) above
T3 sequence (P09619 33-1106): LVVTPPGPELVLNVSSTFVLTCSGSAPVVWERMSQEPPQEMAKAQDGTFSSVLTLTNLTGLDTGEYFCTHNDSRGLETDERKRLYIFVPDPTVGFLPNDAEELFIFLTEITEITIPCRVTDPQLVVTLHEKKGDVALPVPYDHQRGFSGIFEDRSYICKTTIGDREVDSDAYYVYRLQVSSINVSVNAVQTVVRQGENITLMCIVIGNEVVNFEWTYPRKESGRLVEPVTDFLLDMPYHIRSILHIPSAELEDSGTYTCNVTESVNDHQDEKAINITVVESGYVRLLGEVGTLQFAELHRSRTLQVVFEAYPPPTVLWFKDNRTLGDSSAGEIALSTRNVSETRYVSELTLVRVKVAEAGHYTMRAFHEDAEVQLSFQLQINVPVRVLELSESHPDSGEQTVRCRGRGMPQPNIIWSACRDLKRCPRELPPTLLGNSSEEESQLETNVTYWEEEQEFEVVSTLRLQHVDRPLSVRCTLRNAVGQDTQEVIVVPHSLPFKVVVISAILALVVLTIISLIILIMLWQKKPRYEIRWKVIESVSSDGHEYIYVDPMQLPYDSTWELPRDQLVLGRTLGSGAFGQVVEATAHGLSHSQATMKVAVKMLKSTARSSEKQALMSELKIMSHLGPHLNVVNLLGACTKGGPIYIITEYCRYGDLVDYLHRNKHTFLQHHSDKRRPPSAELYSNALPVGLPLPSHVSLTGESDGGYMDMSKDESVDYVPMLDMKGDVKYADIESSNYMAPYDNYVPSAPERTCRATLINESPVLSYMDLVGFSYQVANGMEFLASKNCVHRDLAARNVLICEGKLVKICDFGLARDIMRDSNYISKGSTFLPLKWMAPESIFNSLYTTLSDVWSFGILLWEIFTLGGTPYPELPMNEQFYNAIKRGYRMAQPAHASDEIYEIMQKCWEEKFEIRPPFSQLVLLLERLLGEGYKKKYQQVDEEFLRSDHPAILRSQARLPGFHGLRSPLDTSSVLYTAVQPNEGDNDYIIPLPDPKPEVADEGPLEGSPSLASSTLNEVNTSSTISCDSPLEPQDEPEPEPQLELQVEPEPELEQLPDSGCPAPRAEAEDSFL

With Cc1ccc(-c2cc(C(F)(F)F)nn2-c2ccc(S(N)(=O)=O)cc2)cc1 [Celecoxib] the “effect on lung metastasis” value (Lewis Lung tumors; 160 ppm in the diet) was “did not affect”, the “reduction of surface metastasis” value (Lewis Lung tumors; 480-3200 ppm in the diet) was “more than 50%” and the “size of the metastasic lesions in the lung” value (Lewis Lung tumors; histopathological analysis) was “dose-dependently reduced”. The “tumor Volume” value ([1]; 10 ppm in the diet from day 10, day 14) was 0.124 mL, the “tumor Volume” value ([1]; 10 ppm in the diet from day 10, day 22) was 0.25 mL and the “tumor Volume” value ([1]; 10 ppm in the diet from day 10, day 28) was 0.36 mL. For the same molecule, the “tumor Volume” value ([1]; 10 ppm in the diet from day 10, day 35) was 0.57 mL, the “tumor Volume” value ([1]; 10 ppm in the diet from day 10, day 42) was 0.89 mL and the “tumor Volume” value ([1]; 10 ppm in the diet from day 10, day 50) was 1.49 mL. For the same molecule, the “tumor Volume” value ([1]; 40 ppm in the diet from day 10, day 14) was 0.125 mL, the “tumor Volume” value ([1]; 40 ppm in the diet from day 10, day 22) was 0.19 mL and the “tumor Volume” value ([1]; 40 ppm in the diet from day 10, day 28) was 0.27 mL. The “tumor Volume” value ([1]; 40 ppm in the diet from day 10, day 35) was 0.4 mL, the “tumor Volume” value ([1]; 40 ppm in the diet from day 10, day 42) was 0.68 mL and the “tumor Volume” value ([1]; 40 ppm in the diet from day 10, day 50) was 1.04 mL. The “tumor Volume” value ([1]; 160 ppm in the diet from day 10, day 14) was 0.120 mL, the “tumor Volume” value ([1]; 160 ppm in the diet from day 10, day 22) was 0.14 mL and the “tumor Volume” value ([1]; 160 ppm in the diet from day 10, day 28) was 0.21 mL. The “tumor Volume” value ([1]; 160 ppm in the diet from day 10, day 35) was 0.3 mL, the “tumor Volume” value ([1]; 160 ppm in the diet from day 10, day 42) was 0.49 mL and the “tumor Volume” value ([1]; 160 ppm in the diet from day 10, day 50) was 0.8 mL. For the same molecule, the “effect in combination with a cytotoxic agent (cyclophosphamide)” value ([1]; celecoxib in the diet, cytoxin i.p. 50 mg/kg on days 5, 7 and 9) was “positive benefit”.
Cc1[nH]c(/C=C2\C(=O)Nc3ccc(-c4ccccc4)cc32)c(C)c1C(=O)NCCCn1ccnc1 [Example 58, 2,4-Dimethyl-5-(2-oxo-5-phenyl-1,2-dihydroindol-3-ylidenemethyl)-1H-pyrrole-3-carboxylic Acid (3-imidazol-1-ylpropyl)amide] gave a pIC50 [2] of under 4.00, a pIC50 (EGFR) of under 4.00 and a pIC50 (EGFR (A431 cell lysate)) of under 4.00.
With CCN(CC)CCNC(=O)c1c(C)[nH]c(/C=C2\C(=O)Nc3cc(-c4cc(Cl)cc(Cl)c4)ccc32)c1C [Example 62, 5-[6-(3,5-Dichlorophenyl)-2-oxo-1,2-dihydroindol-3-ylidenemethyl]-2,4-dimethyl-1H-pyrrole-3-carboxylic Acid (2-diethylaminoethyl)amide] the pIC50 [2] was under 4.00, the pIC50 (EGFR) was under 4.00 and the pIC50 (EGFR (A431 cell lysate)) was under 4.00.
CCN(CC)CCNC(=O)c1c(C)[nH]c(/C=C2\C(=O)Nc3cc(-c4cccnc4)ccc32)c1C [Example 63, 2,4-Dimethyl-5-(2-oxo-6-pyridin-3-yl-1,2-dihydroindol-3-ylidenemethyl)-1H-pyrrole-3-carboxylic Acid (2-diethylaminoethyl)amide] showed a pIC50 [2] of under 4.00, a pIC50 (EGFR) of under 4.00 and a pIC50 [3] of over 6.11.
For Cc1cc(C)c(/C=C2\C(=O)N(CN3CCN(C)CC3)c3ccccc32)[nH]1 [Example 205, (3Z)-3-[(3,5-dimethyl-1H-pyrrol-2-yl)-methylidene]-1-[1-(4-methylpiperazinyl)methyl]-dihydro-2H-indol-2-one], the melting point was 160 to 164 °C.
Work on Cc1cc(C)c(/C=C2\C(=O)N(CN3CCCC3)c3ccccc32)[nH]1 [Example 206, (3Z)-3-[(3,5-dimethyl-1H-pyrrol-2-yl)-methylidene]-1-(1-pyrrolidinylmethyl)-1,3-dihydro-2H-indol-2-one] yielded a melting point of 129 to 132 °C.
In the case of NS(=O)(=O)c1ccc(-n2nc(C(F)(F)F)cc2-c2ccc(Cl)cc2)cc1 [SC-58236, 4-[5-(4-chorophenyl)-3-(trifluoromethyl)-1H-pyrazole-1-yl]benzenesulfonamide], the “reduction of tumor volume” value ([1]; HT-29 assay A) was 89% and the “formation of lung metastasis” value [4] was “completely inhibited”.
In the case of COc1ccc2c(c1)c(CC(=O)O)c(C)n2C(=O)c1ccc(Cl)cc1 [indomethacin], the “inhibition of tumor formation” value ([1]; 2 mg/kg/day in the drinking water, near the maximum tolerated dose) was 77% and the “formation of lung metastasis” value [4] was “ineffective”.
